Assay results reported in PubChem BioAssay AID330 (DTP/NCI, 2004).
Values joined by “and” are separate entries in the source; they are usually repeats but may differ in a detail not shown here. Equal entries are not always repeated. Inconclusive results and toxic doses are left out. The calls were made as follows: active = survival T/C of 150% or more; inactive = T/C below 125% in these data.

Tested on: P388 leukemia ip, CD2F1 mice, survival T/C
Assay: NCI In Vivo Anticancer Drug Screen. Data for tumor model P388 Leukemia (intraperitoneal) in CD2F1 (CDF1) mice
Settings: endpoint: median survival time, higher = longer survival
Procedure, shortened: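 Mice carrying the transplanted tumor received test compound or vehicle. Survival was recorded in each group, and the value is the treated-group measurement divided by that of the vehicle-treated control group.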

[1] = dose: 6.25 mg/kg/injection, schedule: Q01DX005 (ip), vehicle: saline with Tween-80
[2] = dose: 12.5 mg/kg/injection, schedule: Q01DX005 (ip), vehicle: saline with Tween-80
[3] = dose: 25.0 mg/kg/injection, schedule: Q01DX005 (ip), vehicle: saline with Tween-80
[4] = dose: 50.0 mg/kg/injection, schedule: Q01DX009 (ip), vehicle: saline with Tween-80
[5] = dose: 100.0 mg/kg/injection, schedule: Q01DX009 (ip), vehicle: saline with Tween-80
[6] = dose: 200.0 mg/kg/injection, schedule: Q01DX009 (ip), vehicle: saline with Tween-80
[7] = dose: 100.0 mg/kg/injection, schedule: Q04DX003 (ip), vehicle: saline with Tween-80
[8] = dose: 200.0 mg/kg/injection, schedule: Q04DX003 (ip), vehicle: saline with Tween-80
[9] = dose: 400.0 mg/kg/injection, schedule: Q04DX003 (ip), vehicle: saline with Tween-80
[10] = dose: 100.0 mg/kg/injection, schedule: Q01DX001 (ip), vehicle: Klucel (hydroxypropylcellulose) (HPC)
[11] = dose: 200.0 mg/kg/injection, schedule: Q01DX001 (ip), vehicle: Klucel (hydroxypropylcellulose) (HPC)

Measured: T/C

CS/C(=C/c1ccc2ccccc2[n+]1C)N1CCOCC1
inactive: [1] 105 % of control and 107 % of control and 108 % of control | [2] 103 % of control and 105 % of control and 119 % of control | [3] 110 % of control (2×) and 121 % of control

Nc1ncnc2nc[nH]c12
inactive: dose: 16.0 mg/kg/injection, schedule: Q01DX009 (ip), vehicle: Klucel (hydroxypropylcellulose) (HPC) 100 % of control | dose: 32.0 mg/kg/injection, schedule: Q01DX009 (ip), vehicle: Klucel (hydroxypropylcellulose) (HPC) 103 % of control and 108 % of control and 109 % of control | dose: 32.0 mg/kg/injection, schedule: Q01DX009 (ip), vehicle: saline with Tween-80 106 % of control and 118 % of control | [4] 99 % of control | dose: 64.0 mg/kg/injection, schedule: Q01DX009 (ip), vehicle: Klucel (hydroxypropylcellulose) (HPC) 106 % of control | dose: 64.0 mg/kg/injection, schedule: Q01DX009 (ip), vehicle: saline with Tween-80 111 % of control and 97 % of control | [5] 114 % of control | dose: 128.0 mg/kg/injection, schedule: Q01DX009 (ip), vehicle: Klucel (hydroxypropylcellulose) (HPC) 110 % of control | dose: 128.0 mg/kg/injection, schedule: Q01DX009 (ip), vehicle: saline with Tween-80 100 % of control and 108 % of control | [6] 110 % of control | dose: 256.0 mg/kg/injection, schedule: Q01DX009 (ip), vehicle: Klucel (hydroxypropylcellulose) (HPC) 88 % of control | dose: 256.0 mg/kg/injection, schedule: Q01DX009 (ip), vehicle: saline with Tween-80 118 % of control

CCCCCCCCCCCCC(O)CCC1CCCCN1 (configuration not stated)
inactive: dose: 50.0 mg/kg/injection, schedule: Q01DX005 (ip), vehicle: saline 102 % of control | dose: 100.0 mg/kg/injection, schedule: Q01DX005 (ip), vehicle: saline 105 % of control

CC(C)N(C(=O)COc1ccc(Cl)cc1Cl)c1ccccc1
inactive: [7] 104 % of control | [8] 100 % of control | [9] 100 % of control

CN1C(=S)NC2C(O)C(O)C(CO)OC21 (configuration not stated)
inactive: dose: 50.0 mg/kg/injection, schedule: Q01DX005 (ip), vehicle: saline with Tween-80 97 % of control | dose: 100.0 mg/kg/injection, schedule: Q01DX005 (ip), vehicle: saline with Tween-80 99 % of control | dose: 200.0 mg/kg/injection, schedule: Q01DX005 (ip), vehicle: saline with Tween-80 99 % of control

O=C1C(c2ccccc2)=C(c2ccccc2)/C1=C/c1ccc(F)cc1
inactive: dose: 50.0 mg/kg/injection, schedule: Q01DX001 (ip), vehicle: Klucel (hydroxypropylcellulose) (HPC) 112 % of control | [10] 106 % of control | [11] 118 % of control

Cc1c(N=Nc2ccc([N+](=O)[O-])cc2)nc2scc(-c3ccccc3)n12
inactive: dose: 25.0 mg/kg/injection, schedule: Q04DX002 (ip), vehicle: Klucel (hydroxypropylcellulose) (HPC) 121 % of control | dose: 100.0 mg/kg/injection, schedule: Q04DX002 (ip), vehicle: Klucel (hydroxypropylcellulose) (HPC) 86 % of control

C1=C(OC(=Nc2ccccc2)N2CCOCC2)N=C(OC(=Nc2ccccc2)N2CCOCC2)/C1=C1\C=C(OC(=Nc2ccccc2)N2CCOCC2)N=C1OC(=Nc1ccccc1)N1CCOCC1
inactive: [10] 104 % of control | [11] 107 % of control | dose: 400.0 mg/kg/injection, schedule: Q01DX001 (ip), vehicle: Klucel (hydroxypropylcellulose) (HPC) 106 % of control

Cc1cc2ccc(OC(=O)c3ccc(N=C(N)N)cc3)cc2oc1=O
inactive: [7] 100 % of control | [8] 91 % of control | [9] 87 % of control

Cc1ccc(S(=O)(=O)OC(=C(F)F)[Si](C)(C)C)cc1
inactive: [4] 102 % of control | [5] 94 % of control

CC1CC2OC(=O)C3=C2C(CCC3)C12CC(c1ccoc1)OC2=O (configuration not stated)
inactive: dose: 12.5 mg/kg/injection, schedule: Q01DX009 (ip), vehicle: saline with Tween-80 91 % of control | dose: 25.0 mg/kg/injection, schedule: Q01DX009 (ip), vehicle: saline with Tween-80 91 % of control and 89 % of control | [4] 93 % of control

CN1CCc2c3c(c4c(c21)CCN4C)CCc1ccccc1-3
inactive: dose: 50.0 mg/kg/injection, schedule: Q01DX005 (ip), vehicle: Klucel (hydroxypropylcellulose) (HPC) 104 % of control | dose: 100.0 mg/kg/injection, schedule: Q01DX005 (ip), vehicle: Klucel (hydroxypropylcellulose) (HPC) 101 % of control | dose: 200.0 mg/kg/injection, schedule: Q01DX005 (ip), vehicle: Klucel (hydroxypropylcellulose) (HPC) 96 % of control

CNC(=O)CC(N)C(=O)O (configuration not stated)
inactive: dose: 12.5 mg/kg/injection, schedule: Q01DX009 (ip), vehicle: saline 96 % of control | dose: 25.0 mg/kg/injection, schedule: Q01DX009 (ip), vehicle: saline 94 % of control | dose: 50.0 mg/kg/injection, schedule: Q01DX009 (ip), vehicle: saline 101 % of control | dose: 50.0 mg/kg/injection, schedule: Q01DX009 (ip), vehicle: water 105 % of control | dose: 100.0 mg/kg/injection, schedule: Q01DX009 (ip), vehicle: saline 98 % of control | dose: 100.0 mg/kg/injection, schedule: Q01DX009 (ip), vehicle: water 105 % of control | dose: 200.0 mg/kg/injection, schedule: Q01DX009 (ip), vehicle: saline 113 % of control | dose: 200.0 mg/kg/injection, schedule: Q01DX009 (ip), vehicle: water 109 % of control

O=S1(=O)CCOc2ccccc2N1
inactive: dose: 100.0 mg/kg/injection, schedule: Q04DX003 (ip), vehicle: Klucel (hydroxypropylcellulose) (HPC) 96 % of control | dose: 200.0 mg/kg/injection, schedule: Q04DX003 (ip), vehicle: Klucel (hydroxypropylcellulose) (HPC) 96 % of control | dose: 400.0 mg/kg/injection, schedule: Q04DX003 (ip), vehicle: Klucel (hydroxypropylcellulose) (HPC) 90 % of control

OCC(F)(F)C(F)(F)C(F)(F)F
inactive: dose: 100.0 mg/kg/injection, schedule: Q04DX003 (ip), vehicle: saline 104 % of control | dose: 200.0 mg/kg/injection, schedule: Q04DX003 (ip), vehicle: saline 90 % of control | dose: 400.0 mg/kg/injection, schedule: Q04DX003 (ip), vehicle: saline 90 % of control

Cc1[nH]nc2c(=O)n(C)cnc12
inactive: dose: 25.0 mg/kg/injection, schedule: Q01DX005 (ip), vehicle: water 100 % of control | dose: 50.0 mg/kg/injection, schedule: Q01DX005 (ip), vehicle: water 94 % of control | dose: 100.0 mg/kg/injection, schedule: Q01DX005 (ip), vehicle: water 92 % of control | dose: 200.0 mg/kg/injection, schedule: Q01DX005 (ip), vehicle: water 93 % of control | dose: 400.0 mg/kg/injection, schedule: Q01DX005 (ip), vehicle: water 91 % of control

CCCC1CCCCN1C (configuration not stated)
inactive: dose: 3.12 mg/kg/injection, schedule: Q01DX005 (ip), vehicle: saline with Tween-80 105 % of control | [1] 105 % of control | [2] 108 % of control | [3] 105 % of control

[Cl][Pt+2]([Cl])([Cl])[Cl].[Na+].[S-]c1ncnc2nc[nH]c12.[S-]c1ncnc2nc[nH]c12
inactive: dose: 132.0 mg/kg/injection, schedule: Q01DX009 (ip), vehicle: saline with Tween-80 100 % of control | [6] 109 % of control

COc1ccc2nc(NCCNCCO)cc(NCCNCCO)c2c1
inactive: dose: 30.0 mg/kg/injection, schedule: Q01DX005 (ip), vehicle: water 98 % of control | dose: 60.0 mg/kg/injection, schedule: Q01DX005 (ip), vehicle: water 97 % of control

CS/C(=C/c1ccc2ccccc2[n+]1C)N1CCN(C)CC1
inactive: dose: 6.25 mg/kg/injection, schedule: Q01DX005 (ip), vehicle: saline 99 % of control | dose: 12.5 mg/kg/injection, schedule: Q01DX005 (ip), vehicle: saline 98 % of control | dose: 25.0 mg/kg/injection, schedule: Q01DX005 (ip), vehicle: saline 102 % of control
